We go through 1 molecule from PMC7997574, “Lead Optimization of Benzoxazolone Carboxamides as Orally Bioavailable and CNS Penetrant Acid Ceramidase Inhibitors” (Journal of Medicinal Chemistry, 2020).

One series has as its system GluSph (d18:1). The series is described as follows: Brain GluSph levels in 4L;C* mice (neuropathic Gaucher's disease model). Type of series: in vivo, mouse. Here is the method: 4L;C* mice (C57BL/6 J/129SvEV) were randomly assigned to three treatment groups (N = 4–8 with mixed males and females) and dosed once a day i.p. with 90 or 30 mg kg^–1 of 22m or vehicle. Treatment started at 5 days of age for a duration of 14 days. The application volume was set to 10 μL per gram of body weight, and dosage was adjusted accordingly. Animals of all groups were sacrificed 1 h after the last dose, and the brain tissues and plasma were collected. The left brain containing cortex, cerebella, thalamus, and brainstem was analyzed for SphL levels by MS. Data were analyzed using the Student t test. The right brain containing cortex, cerebella, thalamus, and brainstem and plasma were analyzed for drug levels of 22m. All mice were housed under pathogen-free conditions in the animal facility, and animal experiment was performed according to the IACUC approved protocol (2018-0056) at Cincinnati Children’s Hospital Research Foundation. Wild Type (WT) (GALC+/+) and Twitcher (Twi) (GALC–/−) mice were genotyped by PCR as previously described.[58] […] The left brain containing cortex, cerebella, thalamus, and brainstem was analyzed for SphL levels by MS. Data were analyzed using the Student t test. The right brain containing cortex, cerebella, thalamus, and brainstem and plasma were analyzed for drug levels of 22m. […]

Series [1] can be described thus: In vitro mouse plasma protein binding (equilibrium dialysis). Format: in vitro ADME. Particulars: read-out: Fp, u (%) plasma fraction unbounded. Here is the method: Studies were performed by the DMPK Group at Shanghai ChemPartner Co., Ltd., using the equilibrium dialysis method. Values are the mean of two technical replicates.
(Equilibrium dialysis compares concentrations on both sides of a semipermeable membrane.)

The target of the next series is T1, AC (Homo sapiens, UniProt Q13510).
T1 sequence (Q13510 22-395): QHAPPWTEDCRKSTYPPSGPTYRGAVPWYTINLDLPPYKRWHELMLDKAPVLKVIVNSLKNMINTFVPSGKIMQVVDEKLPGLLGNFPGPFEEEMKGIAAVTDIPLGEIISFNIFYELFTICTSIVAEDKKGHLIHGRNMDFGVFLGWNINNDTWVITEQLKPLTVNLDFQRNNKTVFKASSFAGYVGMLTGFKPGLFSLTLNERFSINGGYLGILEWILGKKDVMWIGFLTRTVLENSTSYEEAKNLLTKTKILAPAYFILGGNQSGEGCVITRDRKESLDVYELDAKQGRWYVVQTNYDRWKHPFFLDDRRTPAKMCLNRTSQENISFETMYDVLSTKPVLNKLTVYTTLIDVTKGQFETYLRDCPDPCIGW
The series is described as follows: Fluorogenic hAC assay on hAC-enriched lysate of HEK293 cells. The following applies: hAC expressed in HEK-293 cells; read-out: hAC IC50 (μM)±SD. Type of series: biochemical. Further details: expressed in transfected cells. In outline:
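Lysosome-enriched lysate (2 μg protein) from HEK293 cells stably expressing hAC, in 25 mM NaOAc pH 4.5. Pre-incubated 10 min with compound, then incubated 3 h at 37 °C with fluorogenic substrate Rbm14–12 (5 μM final, ~KM). Fluorescence (355/460 nm) read after NaIO4 development; IC50 by nonlinear regression, mean of ≥3 experiments.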

SMILES strings stand for the structures.

In general, IC50 refers to the concentration needed to halve the response being measured. Take `CC(C)CNC(=O)n1c(=O)oc2cc(C3CCN(C)CC3)ccc21` [22m, N-Isobutyl-6-(1-methyl-4-piperidyl)-2-oxo-1,3-benzoxazole-3-carboxamide]: the “effect on brain GluSph (d18:1)” value with GluSph (d18:1) (30 and 90 mg kg^–1 i.p. once a day for 14 days) is “significantly reduces GluSph (d18:1) in the brain of 4L;C* mice in a dose-dependent manner”. In addition, the “reduction of the GluSph levels relative to control” value in the series on GluSph (d18:1) (brain, 90 mg kg^–1 i.p. once a day for 14 days) is on record as 54%. Moreover, the fraction unbound in series [1] was 0.138. Also, on AC, the IC50 stood at 0.166 ± 0.089 µM.
